Reference: US12331045B2, “Substituted phenyl oxazolone compounds” (Bristol-Myers Squibb Company, priority 2023, dated 2025)

How the values were obtained:
Assay type in all cases: cell-based
IKZF3 Aiolos [1] = target: T1, IKZF3 Aiolos (Homo sapiens, UniProt Q96SW2+Q9UKT9); test: Jurkat Cellular Degradation Assay; settings: Jurkat cells, 72 h; for IKZF3 Aiolos max % deg. observed: flow cytometry, 100% = complete degradation
Protocol: (§1) Jurkat cells were plated at 80,000 cells/well in 40 μL RPMI+10% FBS in a 384-well cell culture plate prior to using acoustic dispensing technology for adding a compound of interest. Cell cultures were incubated for 72 h at 37° C., and 5% CO2. In order to facilitate analysis, cell cultures were spun down at 200 rpm for 5 min and the supernatant was discarded. After shaking the plate to dislodge the cell pellet, cells were resuspended in 50 qL of Fixation Buffer (eBioscience FoxP3 buffer set 00-5523-00) for 60 min at room temperature. After centrifuging and discarding the supernatant, cells were permeabilized with 50 μL of Permeabilization buffer (eBioscience FoxP3 buffer set 00-5523-00) for 10 min at room temperature. Following permeabilization, cells were spun down and the supernatant was replaced with 20 μL fluorescently labelled antibodies against Helios, Ikaros and Aiolos or corresponding Isotype controls in 1-Penneabilization buffer (Ikaros-Alexa488 [Biolegend, Cat #368408, 1:50], Helios-PE [CST, Cat #29360, 1:50], Aiolos-Alexa647 [Biolegend, Cat #371106 Biolegend, 1:25]) and staining reactions were incubated for 1 h at room temperature while protected from light. Subsequently, 30 μL of 1× Permeabilization buffer was added prior to centrifuging the cells and discarding the supernatant. Stained cells were resuspended in 25 μL of flow cytometry staining buffer [PBS+0.2% bovine serum albumin (BSA)] and analyzed using an Intellicyt Ique Plus flow cytometer.

IKZF1 Ikaros [2] = target: T2, IKZF1 Ikaros (Homo sapiens, UniProt Q13422+Q96SW2); test: Human CD8+ T Cell Reprogramming Assay (method headed Human CD8+ T Cell Degradation Assay); design: HELIOS-PE-Cy7, EOS-PE, IKAROS-PECF594, AIOLOS-AF647; endogenous in cells; host or cells: healthy-donor human PBMC; CD8+ T cells analysed by flow cytometry; settings: CD8+ T cells in human PBMC, 24 hours; for IKZF1 Ikaros Maximum Observed Degradation: flow cytometry; for DC50: 50% reduction vs DMSO
T2 sequence (Q13422 whole entry): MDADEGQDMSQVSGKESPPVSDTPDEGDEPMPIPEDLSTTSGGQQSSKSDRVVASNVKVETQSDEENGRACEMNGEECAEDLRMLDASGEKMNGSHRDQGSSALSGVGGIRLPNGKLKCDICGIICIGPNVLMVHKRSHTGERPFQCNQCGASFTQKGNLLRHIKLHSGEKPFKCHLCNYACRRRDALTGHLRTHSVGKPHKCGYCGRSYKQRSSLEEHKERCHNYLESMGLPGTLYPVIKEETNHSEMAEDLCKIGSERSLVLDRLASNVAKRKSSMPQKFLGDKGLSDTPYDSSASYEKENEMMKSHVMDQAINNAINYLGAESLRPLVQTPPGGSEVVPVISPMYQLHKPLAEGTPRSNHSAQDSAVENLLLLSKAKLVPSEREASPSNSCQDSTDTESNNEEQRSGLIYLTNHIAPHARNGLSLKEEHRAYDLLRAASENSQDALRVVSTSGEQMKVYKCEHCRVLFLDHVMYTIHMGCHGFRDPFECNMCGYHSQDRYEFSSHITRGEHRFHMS
T2 sequence (Q96SW2 whole entry): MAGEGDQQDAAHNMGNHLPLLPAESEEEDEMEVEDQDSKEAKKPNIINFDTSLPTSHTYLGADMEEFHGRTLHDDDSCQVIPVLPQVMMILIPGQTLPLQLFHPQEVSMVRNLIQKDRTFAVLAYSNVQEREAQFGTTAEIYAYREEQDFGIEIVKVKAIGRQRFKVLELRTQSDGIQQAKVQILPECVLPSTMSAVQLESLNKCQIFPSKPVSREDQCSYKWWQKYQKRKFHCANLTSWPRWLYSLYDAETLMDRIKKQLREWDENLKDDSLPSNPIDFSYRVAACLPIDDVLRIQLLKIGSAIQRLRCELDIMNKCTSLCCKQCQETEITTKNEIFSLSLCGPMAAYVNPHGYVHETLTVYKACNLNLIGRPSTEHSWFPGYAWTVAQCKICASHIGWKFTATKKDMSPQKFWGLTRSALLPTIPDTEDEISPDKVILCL
T2 sequence (Q16531 whole entry partner): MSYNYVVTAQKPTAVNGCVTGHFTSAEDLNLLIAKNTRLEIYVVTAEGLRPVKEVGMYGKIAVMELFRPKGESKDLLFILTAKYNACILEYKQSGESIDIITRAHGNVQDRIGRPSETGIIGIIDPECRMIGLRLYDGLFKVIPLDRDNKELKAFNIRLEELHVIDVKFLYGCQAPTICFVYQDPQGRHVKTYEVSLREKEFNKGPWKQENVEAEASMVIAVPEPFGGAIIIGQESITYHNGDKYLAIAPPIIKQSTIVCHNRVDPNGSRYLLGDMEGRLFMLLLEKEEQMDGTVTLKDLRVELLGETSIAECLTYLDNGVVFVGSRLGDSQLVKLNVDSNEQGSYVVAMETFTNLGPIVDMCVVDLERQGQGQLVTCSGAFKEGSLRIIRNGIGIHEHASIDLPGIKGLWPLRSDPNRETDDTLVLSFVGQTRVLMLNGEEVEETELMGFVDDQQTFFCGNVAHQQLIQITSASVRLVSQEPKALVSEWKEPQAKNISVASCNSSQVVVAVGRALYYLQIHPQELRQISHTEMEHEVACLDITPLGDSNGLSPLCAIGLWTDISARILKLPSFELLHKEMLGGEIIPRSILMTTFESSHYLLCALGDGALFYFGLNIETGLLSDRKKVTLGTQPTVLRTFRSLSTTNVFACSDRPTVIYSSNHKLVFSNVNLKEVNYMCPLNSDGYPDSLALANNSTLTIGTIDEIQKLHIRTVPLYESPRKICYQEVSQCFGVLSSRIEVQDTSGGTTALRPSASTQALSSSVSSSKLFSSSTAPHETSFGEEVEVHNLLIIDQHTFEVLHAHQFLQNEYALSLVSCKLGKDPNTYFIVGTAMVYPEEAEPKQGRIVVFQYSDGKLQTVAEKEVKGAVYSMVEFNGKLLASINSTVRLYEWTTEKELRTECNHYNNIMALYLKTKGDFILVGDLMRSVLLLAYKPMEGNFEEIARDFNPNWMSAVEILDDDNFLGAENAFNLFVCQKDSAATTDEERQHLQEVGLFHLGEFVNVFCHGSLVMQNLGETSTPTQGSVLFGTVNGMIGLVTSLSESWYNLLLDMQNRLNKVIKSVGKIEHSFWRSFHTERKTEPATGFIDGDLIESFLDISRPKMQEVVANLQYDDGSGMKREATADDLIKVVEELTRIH
Protocol: (§2) Cryopreserved healthy donor human peripheral blood mononuclear cells (PBMC; obtained from Stemcell Technologies or Blood Works Northwest) from two healthy donors were thawed and seeded at 500,000 cells/well of 96-well round bottom plates in RPMI 1640 media (Gibco) supplemented with 10% FBS, Pen/Strep (Gibco), MEM-NEAA (Gibco), and sodium pyruvate (Gibco). Cells were treated with titrated doses of compound for 24 hours at 37° C., 5% CO2 before analyzing by flow cytometry.
(§3) For flow cytometry staining, cells were washed twice with flow cytometry staining buffer (Thermo Fisher) and incubated in Human Tru-stain Fc block (Biolegend) for 10 minutes before adding eFluor780 viability dye (Thermo Fisher) and surface marker antibody cocktail containing LD-eFluor780, CD3-BUV-395, CD4-BUV805, CD8-FITC, CD25-BV605, FoxP3-BV421, HELIOS-PE-Cy7, EOS-PE, IKAROS-PECF594, AIOLOS-AF647 for 30 minutes at 4° C. Cells were then fixed and permeabilized by incubation with permeabilization buffer (eBioscience FoxP3 buffer set 00-5523-00) for 30 minutes at 4° C., as per the kit manufacturer's instructions. Cells were washed twice with the Perm/Wash buffer suppled in the kit as per the manufacturer's instructions and incubated overnight at 4° C. with an intracellular antibody cocktail comprised of antibodies specific for the transcription factors shown in Table C. Cells were washed twice with Perm/Wash buffer and resuspended in flow cytometry staining buffer (Thermo Fisher) prior to acquisition. Sample acquisition and analysis was performed using a BD LSRFortessa (BD Biosciences) flow cytometer. Single stain controls for each fluorochrome were prepared using UltraComp eBead Compensation Beads (Thermo Fisher). Data were analyzed using FlowJo version 10 and GraphPad Prism Software.

IKZF3 Aiolos [3] = target: T1, IKZF3 Aiolos; test: as above; design: HELIOS-PE-Cy7, EOS-PE, IKAROS-PECF594, AIOLOS-AF647; endogenous in cells; host or cells: healthy-donor human PBMC; CD8+ T cells analysed by flow cytometry; settings: CD8+ T cells in human PBMC, 24 hours; for IKZF3 Aiolos Maximum Observed Degradation: flow cytometry; for DC50: 50% reduction vs DMSO
Protocol: as §2, §3

IKZF4 Eos = target: T3, IKZF4 Eos (Homo sapiens, UniProt Q96SW2+Q9H2S9); test: Human T Regulatory Cells Reprogramming Assay; settings: sorted human Treg cells, 12-13 days; 50% reduction vs DMSO
T3 construct: endogenous in cells; host or cells: primary human CD4+CD127lowCD25+ Treg cells sorted from healthy-donor leukopaks
T3 sequence (Q9H2S9 whole entry): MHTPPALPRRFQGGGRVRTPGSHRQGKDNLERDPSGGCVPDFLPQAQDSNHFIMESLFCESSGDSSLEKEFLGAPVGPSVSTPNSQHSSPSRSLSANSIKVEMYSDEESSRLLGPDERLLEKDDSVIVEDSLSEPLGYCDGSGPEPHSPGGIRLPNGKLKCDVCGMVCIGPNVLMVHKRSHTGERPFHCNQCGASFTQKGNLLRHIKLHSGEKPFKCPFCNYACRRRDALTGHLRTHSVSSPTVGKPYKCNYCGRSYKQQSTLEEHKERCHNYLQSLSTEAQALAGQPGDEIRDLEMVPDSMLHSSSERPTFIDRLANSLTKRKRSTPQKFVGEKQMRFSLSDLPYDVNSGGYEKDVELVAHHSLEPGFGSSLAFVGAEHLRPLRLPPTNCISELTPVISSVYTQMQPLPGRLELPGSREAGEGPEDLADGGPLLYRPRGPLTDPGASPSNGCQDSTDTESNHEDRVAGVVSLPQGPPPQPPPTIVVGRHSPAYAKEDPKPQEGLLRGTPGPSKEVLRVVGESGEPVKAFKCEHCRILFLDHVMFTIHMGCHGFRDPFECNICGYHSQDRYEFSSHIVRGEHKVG
T3 sequence (Q96SW2 whole entry): as the sequence (Q96SW2 whole entry) above
T3 sequence (Q16531 whole entry partner): as the sequence (Q16531 whole entry partner) above
Protocol: (§4) Human CD4^+ T cells were isolated from fresh healthy leukopaks (Stemcell Technologies) using the RosetteSep Human CD4^+ T cell enrichment cocktail (Stemcell Technologies) and Ficoll density gradient centrifugation. Leukopaks were diluted with an equal volume of phosphate-buffered saline (PBS [Gibco]) supplemented with 2% fetal bovine serum (FBS, VWR Lifescience) and incubated with RosetteSep Human CD4^+ T cell enrichment cocktail for 20 minutes before layering on Ficoll-Paque Plus solution (GE Health Care). The cell-rich interface layer was harvested and washed twice with PBS supplemented with 2% FBS. Regulatory T cells were then isolated manually using the EasySep Human CD4^+CD127^lowCD25^+ Regulatory T cell isolation kit (Stemcell Technologies) according to the manufacturer's instructions. Cells were rested overnight in Roswell Park Memorial Institute (RPMI) 1640 media (Gibco) supplemented with 10% FBS, Pen/Strep (Gibco), MEM-NEAA (Gibco), and sodium pyruvate (Gibco) in a humidified incubator (37° C., 5% CO2). […]
(§5) For flow cytometry staining, cells were washed twice with flow cytometry staining buffer (Thermo Fisher) and incubated in Human Tru-stain Fc block (Biolegend) for 10 minutes before adding eFluor780 viability dye (Thermo Fisher) and surface marker antibody cocktail for 30 minutes at 4° C. […] Data were analyzed using FlowJo version 10 and GraphPad Prism Software.

IKZF2 Helios [4] = target: T4, IKZF2 Helios (Homo sapiens, UniProt Q96SW2+Q9UKS7); test: Human T Regulatory Cells Reprogramming Assay; design: endogenous in cells; host or cells: primary human CD4+CD127lowCD25+ Treg cells sorted from healthy-donor leukopaks; settings: sorted human Treg cells, 12-13 days; 50% reduction vs DMSO
T4 sequence (Q9UKS7 whole entry): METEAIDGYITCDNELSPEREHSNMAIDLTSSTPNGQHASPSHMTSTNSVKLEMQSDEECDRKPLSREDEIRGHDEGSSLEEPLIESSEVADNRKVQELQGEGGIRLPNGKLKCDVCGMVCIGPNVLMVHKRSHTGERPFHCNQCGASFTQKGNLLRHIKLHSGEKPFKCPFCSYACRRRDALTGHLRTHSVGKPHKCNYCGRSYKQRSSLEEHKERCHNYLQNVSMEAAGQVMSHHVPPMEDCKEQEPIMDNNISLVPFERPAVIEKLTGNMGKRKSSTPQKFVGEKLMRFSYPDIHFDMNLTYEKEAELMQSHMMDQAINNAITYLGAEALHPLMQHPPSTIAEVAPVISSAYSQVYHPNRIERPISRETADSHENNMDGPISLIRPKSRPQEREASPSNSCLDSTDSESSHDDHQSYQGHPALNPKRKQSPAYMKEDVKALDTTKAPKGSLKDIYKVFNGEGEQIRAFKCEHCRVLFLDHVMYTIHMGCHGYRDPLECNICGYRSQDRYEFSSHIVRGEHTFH
T4 sequence (Q96SW2 whole entry): as the sequence (Q96SW2 whole entry) above
T4 sequence (Q16531 whole entry partner): as the sequence (Q16531 whole entry partner) above
Protocol: as §4, §5

IKZF1 Ikaros [5] = target: T2, IKZF1 Ikaros; test: Jurkat Cellular Degradation Assay; design: HELIOS-PE-Cy7, EOS-PE, IKAROS-PECF594, AIOLOS-AF647; endogenous in cells; settings: Jurkat cells, 72 h; for IKZF1 Ikaros max % deg. observed: flow cytometry, 100% = complete degradation
Protocol: as §1

IKZF1 Ikaros [6] = target: T2, IKZF1 Ikaros; test: Human T Regulatory Cells Degradation Assay; design: HELIOS-PE-Cy7, EOS-PE, IKAROS-PECF594, AIOLOS-AF647; endogenous in cells; settings: 20 hours
IKZF2 Helios [7] = target: T4, IKZF2 Helios; test: Human T Regulatory Cells Degradation Assay; design: endogenous in cells; host or cells: primary human CD4+CD127lowCD25+ Treg cells sorted from healthy-donor leukopaks; settings: 20 hours
Protocol: Cryopreserved human T regulatory cells were thawed in RPMI+10% FBS+20 ng/mL IL-2. After being spun at 1200 rpm for 5 mins, the cells were resuspended in RPMI+10% FBS+20 ng/mL and rested at 37° C. with 5% CO2 for 3 hours. The cells were then plated at 40,000 cells/well in 40 μL RPMI+10% FBS+20 ng/mL human IL-2 in a 384 well cell culture plate prior to using acoustic dispensing technology (ECHO 555) for adding compounds of interest. Cell cultures were incubated for 20 hours at 37° C., and 5% CO2. In order to facilitate analysis, cell cultures were spun down at 1200 rpm for 5 minutes and the supernatant was discarded using an EL406 plate washer. After washing three times with 70 μL PBS, cell pellets were resuspended in 50 μL of near IR viability staining solution (Life Technologies, Cat #L34975) and incubated for 30 minutes on ice protected from light. Cells were washed three times with […] PBS+0.5% BSA using an EL406 plate washer. After shaking the plate to dislodge the cell pellet, cells were resuspended in 50 μL of Fixation Buffer (eBioScience FoxP3 buffer set 00-5523-00) for 60 minutes at room temperature. […] Stained cells were resuspended in 30 μL of flow cytometry staining buffer (PBS+0.5% BSA) and analyzed using an Intellicyt Ique Plus flow cytometer.

IKZF2 Helios [8] = target: T4, IKZF2 Helios; test: Jurkat Cellular Degradation Assay; design: endogenous in cells; settings: Jurkat cells, 72 h; concentration reducing protein by 50% vs DMSO
Protocol: as §1, with “Subsequently, 30 μL of 1× Permeabilization buffer was added prior to centrifuging the cells and discarding the supernatant.” left out

[9] = concentration reducing protein by 50% vs DMSO

T1 sequence (Q9UKT9 whole entry): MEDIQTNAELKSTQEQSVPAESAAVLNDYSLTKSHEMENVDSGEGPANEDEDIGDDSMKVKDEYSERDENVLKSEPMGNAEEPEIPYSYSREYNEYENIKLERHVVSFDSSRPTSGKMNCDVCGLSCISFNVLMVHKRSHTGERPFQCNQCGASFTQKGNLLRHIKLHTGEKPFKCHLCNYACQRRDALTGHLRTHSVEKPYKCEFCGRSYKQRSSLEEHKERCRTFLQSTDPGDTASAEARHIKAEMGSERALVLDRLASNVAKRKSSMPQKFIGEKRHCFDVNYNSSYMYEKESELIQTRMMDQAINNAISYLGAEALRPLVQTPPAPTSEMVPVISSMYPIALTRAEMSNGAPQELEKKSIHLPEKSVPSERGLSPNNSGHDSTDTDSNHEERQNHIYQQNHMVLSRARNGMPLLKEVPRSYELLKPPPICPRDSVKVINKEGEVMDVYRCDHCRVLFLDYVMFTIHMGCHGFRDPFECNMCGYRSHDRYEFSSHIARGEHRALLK
T1 sequence (Q96SW2 whole entry): as the sequence (Q96SW2 whole entry) above
T1 sequence (Q16531 whole entry partner): as the sequence (Q16531 whole entry partner) above

| IKZF3 Aiolos max % deg. observed (IKZF3 Aiolos [1]) | IKZF1 Ikaros Maximum Observed Degradation (IKZF1 Ikaros [2]) | DC50 (IKZF1 Ikaros [2]) | IKZF3 Aiolos Maximum Observed Degradation (IKZF3 Aiolos [3]) | DC50 (IKZF3 Aiolos [3]) | DC50 (IKZF4 Eos) | DC50 (IKZF2 Helios [4]) | IKZF1 Ikaros max % deg. observed (IKZF1 Ikaros [5]) | DC50 (IKZF1 Ikaros [5]; [9]) | DC50 (IKZF3 Aiolos [1]; [9]) | DC50 (IKZF1 Ikaros [6]; 50% reduction vs DMSO) | IKZF1 Ikaros max % deg. observed (IKZF1 Ikaros [6]; flow cytometry) | DC50 (IKZF2 Helios [7]; 50% reduction vs DMSO) | IKZF2 Helios max % deg. observed (IKZF2 Helios [7]; flow cytometry) | DC50 (IKZF2 Helios [8]) | Structure (SMILES) |
| --- | --- | --- | --- | --- | --- | --- | --- | --- | --- | --- | --- | --- | --- | --- | --- |
| 15% | – | – | – | – | – | – | – | – | – | – | – | – | – | – | O=C1CCC(n2cc(-c3ccc(Br)cc3F)oc2=O)C(=O)N1 (stereo not drawn) [Comparative Compound B, 3-(5-(4-bromo-2-fluorophenyl)-2-oxooxazol-3(2H)-yl)piperidine-2,6-dione, reference compound] |
| – | 66% | 139 nM | 71% | 26 nM | 0.63 nM | 42 nM | – | – | – | – | – | – | – | – | [2H]C1([2H])C(=O)NC(=O)C([2H])(n2cc(-c3ccc(-c4cc(C)c(C)c(N)n4)cc3F)oc2=O)C1([2H])[2H] (stereo not drawn) [Example 2, 3-(5-(4-(6-amino-4,5-dimethylpyridin-2-yl)-2-fluorophenyl)-2-oxooxazol-3(2H)-yl) piperidine-2,6-dione-3,4,4,5,5-D5] |
| 54% | 74% | 102 nM | 77% | 19 nM | 1.5 nM | 85 nM | 66% | 1080 nM | 4920 nM | 5470 nM | 55% | 5.2 nM | 99% | 13.6 nM | Cc1cc(-c2ccc(-c3cn(C4CCC(=O)NC4=O)c(=O)o3)c(F)c2)nc(N)c1C (stereo not drawn) [Example 1, 3-(5-(4-(6-Amino-4,5-dimethylpyridin-2-yl)-2-fluorophenyl)-2-oxooxazol-3(2H)-yl) piperidine-2,6-dione] |
| 46% | – | – | – | – | – | – | 57% | – | – | – | – | – | – | – | O=C1CCC(n2cc(-c3ccccc3)oc2=O)C(=O)N1 (stereo not drawn) [Comparative Compound A, 3-(2-oxo-5-phenyloxazol-3(2H)-yl)piperidine-2,6-dione, reference compound] |
